In US20180360721A1, “PEPTIDE FOR STIMULATING MELANOGENESIS” (priority 2017, published 2018):
Where a SMILES comes first, the peptide text is derived from it.

System: B16F10 cells
Assay: MTT assay of cell viability
Type: cell-based, mouse
Settings: different concentrations, 24, 48 or 72 hours
Experimental: B16F10 is a melanoma cell line isolated from mouse skin (American Type Culture Collection, USA) and was cultured in phenol red-free Dulbecco's Modified Eagle Medium (DMEM) containing 10% (v/v) FBS and penicillin/streptomycin (100 IU/[…]) in 5% CO2 at 37° C.
The cells (2×10^3) in 100 μl complete DMEM were seeded in 96-well plates and treated with the peptide of SEQ ID NO: 1 at different concentrations. The cells treated with ddH2O was used as controls. Ten microliters of 5 mg/ml 3-(4,5-dimethyl-2-thiazolyl)-2,5-diphenyl-2H-tetrazolium bromide solution (MTT; Sigma) was added to each well and incubated at 37° C. for 3 hours. After that, 100 μl 10% SDS in 0.01N HCl was added to dissolve the MTT formazan crystals. The resultant optical density was measured by spectrophotometry at dual wavelengths, 550 and 630 nm.

C[C@H](NC(=O)[C@H](CO)NC(=O)[C@@H](N)CC(N)=O)C(=O)N[C@H](C(=O)N[C@@H](CCC(=O)O)C(=O)N[C@@H](CCCNC(=N)N)C(=O)N[C@@H](CCC(=O)O)C(=O)O)[C@@H](C)O [peptide of SEQ ID NO: 1, AsnSerAlaThrGluArgGlu] (H-NSATERE-OH)
cell viability (MTT): did not significantly affect the viability
cell viability (MTT) (listed as peptide having the amino acid sequence of SEQ ID NO: 1): did not significantly affect viability
